Reference: patent publication US20060228333A1, “Methods for control of tumors and chronic infections by modulating immunologically informed carriers homing to tolerogenic organs or tissues” (priority 2004, published 2006)

Test system: thymus (homing of Brown Norway rat PBMCs)
Assay: Thymic homing of injected donor PBMCs after drug treatment (homed cell counting in sliced thymus)
Type: in vivo, Lewis rats
Conditions: for Thymic homing (cell number): control 6580; for Thymic homing compared with control and other treated groups: doses as in Table 1; for Activation of the epithelial cells of the thymus: stated in discussion of Example 1
Description: Inbred male Lewis rats (LW, RT1l) were injected intramuscularly with rapamycine (RAPA; 0.1 mg/kg/d), tacrolimus (TAC; 0.2 mg/kg/d), cyclosporine A (CsA; 10 mg/kg), PGE 1 (32 ug/kg or 10 ug/kg) or a control.
One hour after the above treatments, 1.2-1.6×10^7 peripheral blood mononuclear cells (PBMCs) were obtained from Brown Norway rats (BN, RT1n). The cells were stained with IUBD and then injected intraperitoneally. 24 hours after cellular inoculation, the animals were sacrificed. A thymectomy was performed, the thymus was sliced and homed cell counting was performed. Homed cells may be counted by any method known to one of skill in the art. In this case, as the cells were stained before inoculation, the homed cells in the thymus were identified by the staining. The results of the cell counting are presented in Tables 1 and 2 for each treatment group: […]

[1] = Lewis rats, i.m. RAPA 0.1 mg/kg/d, TAC 0.2 mg/kg/d, CsA 10 mg/kg, 1.2-1.6 × 10^7 BN PBMCs i.p. one hour later, thymus counted 24 hours after inoculation

C=CC[C@@H]1/C=C(\C)C[C@H](C)C[C@H](OC)[C@H]2O[C@@](O)(C(=O)C(=O)N3CCCC[C@H]3C(=O)O[C@H](/C(C)=C/[C@@H]3CC[C@@H](O)[C@H](OC)C3)[C@H](C)[C@@H](O)CC1=O)[C@H](C)C[C@@H]2OC [FK506, tacrolimus]
Thymic homing (cell number) [1]: 2360
Thymic homing compared with control and other treated groups: inactivated PBMCs that homed to the thymus
Activation of the epithelial cells of the thymus: do activate

CCCCC[C@H](O)/C=C/[C@H]1[C@H](O)CC(=O)[C@@H]1CCCCCCC(=O)O [PGE1]
Thymic homing (cell number) (PGE1 10 ug/kg i.m., 1.6 × 10^7 donor cells injected, 24 hours): 8890
Thymic homing (cell number) (PGE1 32 ug/kg i.m., 1.6 × 10^7 donor cells injected, 24 hours): 4680
Effect on epithelial cells and PBMCs (PGE1 high dose 32 ug/kg): inactivated the epithelial cells as well as the PBMCs
Thymic homing compared with low dose and control (PGE1 high dose 32 ug/kg): less thymic homing than low doses

CO[C@H]1C[C@@H]2CC[C@@H](C)[C@@](O)(O2)C(=O)C(=O)N2CCCC[C@H]2C(=O)O[C@H]([C@H](C)C[C@@H]2CC[C@@H](O)[C@H](OC)C2)CC(=O)[C@H](C)/C=C(\C)[C@@H](O)[C@@H](OC)C(=O)[C@H](C)C[C@H](C)/C=C/C=C/C=C/1C [RAPA, rapamycine]
Thymic homing (cell number) [1]: 920

cyclosporine A [CsA]
Thymic homing (cell number) [1]: 3365
Thymic homing compared with control and other treated groups: inactivated PBMCs that homed to the thymus
Activation of the epithelial cells of the thymus: do activate
